The target of the first assay is T1, human PAH with the R408W mutation (Homo sapiens, UniProt P00439, R408W).
T1 construct: expressed in transfected cells
T1 sequence (P00439 1-452 R408W): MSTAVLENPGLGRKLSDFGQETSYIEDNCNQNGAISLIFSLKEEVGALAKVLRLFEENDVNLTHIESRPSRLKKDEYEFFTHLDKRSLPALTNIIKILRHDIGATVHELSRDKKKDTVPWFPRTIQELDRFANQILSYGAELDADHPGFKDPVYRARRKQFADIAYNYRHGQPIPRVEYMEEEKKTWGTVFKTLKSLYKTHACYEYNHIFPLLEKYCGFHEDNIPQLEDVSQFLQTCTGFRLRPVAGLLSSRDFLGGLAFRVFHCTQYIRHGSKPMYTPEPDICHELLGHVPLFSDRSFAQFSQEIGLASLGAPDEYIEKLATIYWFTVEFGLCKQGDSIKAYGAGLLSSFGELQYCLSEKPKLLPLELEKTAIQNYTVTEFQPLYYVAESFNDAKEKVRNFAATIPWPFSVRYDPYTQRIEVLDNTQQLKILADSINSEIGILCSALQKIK
Description: Cell Based Phenylalanine Flux Assay. Set-up: scale not given here. Conditions: A375 R408W cells, 24 hrs with compound, then 20 μM sepiapterin and 800 μM 13C9,15N-Phenylalanine for 4 hours; 13C-Tyrosine by LC-MS; average where tested multiple times.
As to `CC1CN(C(=O)c2ocnc2C(F)(F)F)C(c2cc3ccccc3cn2)c2nc[nH]c21` [(4S, 7R) diastereomer of 3-[7-methyl-5-[4-(trifluoromethyl)-], the half-maximal activity concentration (AC50) entry was “E, E”.
In the case of `CC1CN(C(=O)c2nnc(N3CCN(C)CC3)o2)C(c2cc3ccccc3cn2)c2nc[nH]c21` [(4S, 7R) diastereomer of 3-[7-methyl-5-[5-(4-methylpiperazin], the concentration at half-maximal activity (AC50) result was “E, E”.
Take `COCCNc1nnc(C(=O)N2CC(C)c3[nH]cnc3C2c2cc3ccccc3cn2)o1` [(4S, 7R) diastereomer of 5-[4-(isoquinolin-3-yl)-7-methyl-1H]: the AC50 entry is recorded as “E, E”.
As to `CC1CN(C(=O)c2oc(C(C)(C)O)nc2C(F)(F)F)C(c2cc3ccccc3cn2)c2nc[nH]c21` [(4S, 7R) diastereomer of (2-(2-hydroxypropan-2-yl)-4-(triflu], the AC50 result is listed as “E, E”.
For `CC1CN(C(=O)c2oc(-c3ccccn3)nc2C(F)(F)F)C(c2cc3ccccc3cn2)c2nc[nH]c21` [(4S, 7R) diastereomer of (4-(isoquinolin-3-yl)-7-methyl-6,7-], the half-maximal activity concentration (AC50) entry is “E, E”.
As for `CC1CN(C(=O)c2nnc(C(C)(C)O)o2)C(c2cc3ccccc3cn2)c2nc[nH]c21` [(4S, 7S) diastereomer of 2-{5-[4-(isoquinolin-3-yl)-7-methyl], the AC50 result is listed as “E, E”.
Turning to `Cc1ncoc1C(=O)N1CC(C)c2[nH]cnc2C1c1cc2ccccc2cn1` [(4S, 7S) diastereomer of 3-[7-methyl-5-(4-methyl-1,3-oxazole], the AC50 result is “E, E”.
For `Cc1nnc(C(=O)N2CC(C)c3[nH]cnc3C2c2cc3ccccc3cn2)o1` [(4S, 7S) diastereomer of 3-[7-methyl-5-(5-methyl-1,3,4-oxadi], the AC50 entry is given as “E, E”.
With `CC1CN(C(=O)c2nnc(N3CCN(C)CC3)o2)C(c2cc3ccccc3cn2)c2nc[nH]c21` [(4S, 7S) diastereomer of 3-[7-methyl-5-[5-(4-methylpiperazin], the AC50 result was “E, E”.
On the same count and under the same terms, the entry for `COCCNc1nnc(C(=O)N2CC(C)c3[nH]cnc3C2c2cc3ccccc3cn2)o1` [(4S, 7S) diastereomer of 5-[4-(isoquinolin-3-yl)-7-methyl-1H] is “E, E”.
With `CC1CN(C(=O)c2oc(C(C)(C)O)nc2C(F)(F)F)C(c2cc3ccccc3cn2)c2nc[nH]c21` [(4S, 7S) diastereomer of (2-(2-hydroxypropan-2-yl)-4-(triflu], the half-maximal activity concentration (AC50) entry was “E, E”.
Regarding `CC1CN(C(=O)c2oc(-c3ccccn3)nc2C(F)(F)F)C(c2cc3ccccc3cn2)c2nc[nH]c21` [(4S, 7S) diastereomer of (4-(isoquinolin-3-yl)-7-methyl-6,7-], the AC50 result is on record as “E, E”.

Staying with this assay, now noted: A375 R408W cells, 24 hrs with compound, then 20 μM sepiapterin and 800 μM 13C9,15N-Phenylalanine for 4 hours; 13C-Tyrosine by LC-MS; average where tested multiple times; read-out: AC50.
Take `CC1CN(C(=O)c2nnc(N3CC(F)C3)o2)C(c2cc3ccccc3cn2)c2nc[nH]c21` [(4S, 7S) diastereomer of 3-[5-[5-(3-fluoroazetidin-1-yl)-1,3]: the half-maximal activity concentration (AC50) was above 5 µM.
Regarding `COCc1ccc2c(C(=O)N3CC(C)c4[nH]cnc4C3c3cc4ccccc4cn3)cnn2c1` [(4S, 7S) diastereomer of 3-[5-[6-(methoxymethyl)pyrazolo[1,5], the half-maximal activity concentration (AC50) fell in the range of 1 to 5 µM.

The assay is the same for the next values; noted with them: A375 cells expressing human R408W PAH; 24 hrs compound incubation; 13C-Tyrosine by LC-MS; average where tested multiple times; read-out: AC50.
Regarding `O=C(c1nnc(-c2ccc(F)cc2)o1)N1CCc2[nH]cnc2[C@@H]1c1ccc2ccccc2n1` [Example 12], the AC50 is above 5 µM.
As to `Cc1nc(C(C)(C)O)oc1C(=O)N1CCc2[nH]cnc2[C@H]1c1ccc2ccccc2n1` [Example 13], the AC50 was 1 to 5 µM.
The same measure, in the same setting: the figure for `O=C(c1nnc(-c2c(F)cccc2F)o1)N1CCc2[nH]cnc2[C@@H]1c1ccc2ccccc2n1` [Example 24] is above 5 µM; for `Cc1nc(-c2cnn(C)c2)oc1C(=O)N1CCc2[nH]cnc2[C@H]1c1ccc2ccccc2n1` [Example 26] it is below 0.5 µM.
Regarding `O=C(c1oc(-c2ccccn2)nc1C(F)F)N1CCc2[nH]cnc2[C@@H]1c1ccc2ccccc2n1` [Example 66], the concentration at half-maximal activity (AC50) was in the range of 1 to 5 µM.
Regarding `Cn1ncnc1C(=O)N1CCc2[nH]cnc2[C@@H]1c1ccc2ccccc2n1` [Example 79], the half-maximal activity concentration (AC50) is above 5 µM.
On the same count and under the same terms, the figure for `Cn1cc(C(=O)N2CCc3[nH]cnc3[C@@H]2c2ccc3ccccc3n2)c(Cl)n1` [Example 87] is 1 to 5 µM.

The record behind these values is patent US20250262201A1, “COMPOUNDS AND METHODS USEFUL FOR STABILIZING PHENYLALANINE HYDROXYLASE MUTATIONS” (Agios Pharmaceuticals, Inc., priority 2022, published 2025).
